Measured values taken from patent US11337990B2, “Human milk oligosaccharides to promote growth of beneficial bacteria” (ABBOTT LABORATORIES, priority 2010, dated 2022).
Entries after “also recorded” stand apart in the source; their conditions may differ.

Columns and labels:
HT-29 cells = experiment: Alkaline phosphatase activity per milligram of protein (cell differentiation), HT-29; format: cell-based, human; settings: Example 48: LNnT or 2′FL 20, 200, 2000 mg/L; 6′SL 40, 400; 72 hours
Description: In a first experiment, HT-29 cells, which model the immature epithelial cells of the small intestine, are incubated in a humidified atmosphere of 5% carbon dioxide at 37° C. in the presence of LNnT or 2′FL at concentrations of 0 mg/L (“0”), 20 mg/L (“20”), 200 mg/L (“200”), and 2000 mg/L (“2000”) or in the presence of 6′SL at concentrations of 0 mg/mL (“0”), 40 mg/mL (“40”), 400 mg/mL (“400”), and 4000 mg/mL (“4000”) for 72 hours. The culture medium utilized is Dulbecco's Modified Eagle Medium (Life Technologies, Foster City Calif.) supplemented with 10% fetal calf serum and 2 mM glutamine. The controls (“energy”) consist of 91.5 mg lactose and 64.2 mg N-acetyllactosamine/L for LNnT; 133 mg lactose and 67 mg fucose/L for 2′FL; and 195 mg lactose and 205 mg/L sialic acid for 6′SL. The impact of the LNnT, 2′FL, and 6′SL at various levels and the controls on HT-29 cell proliferation is measured using a conventional BrdU assay, which measures the number of cells that have recently synthesized DNA. […] Additionally, the impact of LNnT, 2′FL, and 6′SL at various levels and the controls on the alkaline phosphatase activity per milligram of protein for HT-29 cells, which is an indicator of cell differentiation, is measured.

Bifidobacterium spp. = experiment: qPCR of bacterial populations in in vitro fecal fermentation; format: cell-based; settings: overall, 0-12 h fermentation
B. infantis ATCC 15697 = experiment: Bacterial growth assay (OD600); format: cell-based, Bifidobacterium infantis; settings: 1% carbohydrate in sMRS+cysteine
Description: (§1) Coy Laboratory Products, Grass Lake, Mich.). Subsequently, the cultures are passed twice on a semi-synthetic MRS medium ([…] which is supplemented with 1% (w/v) filter-sterilized glucose as the sole carbohydrate source. […] For bifidobacteria strains, the same procedure is followed except all media are supplemented with 0.5 g/l L-cysteine/HCl. [table] After the 2nd pass in sMRS+glucose+cysteine, the cultures are washed once with 10 mL of sterile sMRS+cysteine (no carbohydrate), resuspended in 10 ml of sterile sMRS+cysteine (no carbohydrate) and then used as a 1% inoculum. The carbohydrates are sterilized with a 0.22 micron filter and used at a 1% final concentration. Cell growth is performed in 250 μL of sMRS+cysteine covered with 50 μL of mineral oil in a Bioscreen 100-well Honeycomb plate. […] The plate reader is operated in discontinuous mode, with absorbance readings performed in 30-minute intervals, and preceded by 30-second shaking intervals at maximum speed. Controls consist of inoculated medium lacking carbohydrate. […] All three plates include a positive control (glucose) and negative control (no carbohydrate). The OD600 data for each carbohydrate is corrected by subtracting the OD600 of the basal media (sMRS)+cysteine from the sample plate for each probiotic. Maximum OD is determined by inspection of the corrected growth data. OD is determined by subtracting the initial corrected OD (time point 0) from the maximum corrected OD. Samples are grown in biologically independent triplicates and the resulting growth kinetic data are expressed as the mean of these replicates. For the growth curve plots, OD600 vs. time is first plotted for the bacteria grown on medium lacking carbohydrate (sMRS). For all other carbohydrates, the OD600 data is corrected by subtracting the OD600 of sMRS.

B. infantis M-63 = experiment: Bacterial growth assay (OD600); format: cell-based, Bifidobacterium infantis; settings: 1% carbohydrate in sMRS+cysteine
Description: as §1

Caco-2 cells = experiment: Transepithelial resistance (barrier function), Caco-2, Ussing chambers; format: cell-based, human; settings: Example 48, more mature Caco-2 cells
Text: FIGS. 46-48 illustrate the effect of LNnT, 2′FL, and 6′SL on cell resistance (transepithelial resistance), which is a marker for epithelial barrier function, wherein a higher resistance is associated with a higher barrier function. Epithelial cell resistance or barrier function is a measure of differentiated epithelial cell function. Specifically, as the cells mature, tighter junctions between the cells are formed resulting in a stronger epithelial cell barrier. This barrier prevents the movement of large molecules, bacteria, or viruses from one side of the barrier to the other. […] Transepithelial resistance is measured using Transwell Snapwell inserts containing the desired cell culture were transferred to modified Ussing chambers and bathed in modified Kreb's solution at 37 C with 95% oxygen and 5% carbon dioxide. Transepithelial resistance was measured as the passive transport of ions across the monolayers.

infant fecal bacteria = experiment: In vitro substrate fermentation model with infant feces (pH, SCFA, lactate); format: cell-based, human infant
B. breve ATCC 15700 = experiment: Bacterial growth assay (OD600); format: cell-based, Bifidobacterium breve; settings: 1% carbohydrate in sMRS+cysteine
Description: Coy Laboratory Products, Grass Lake, Mich.). Subsequently, the cultures are passed twice on a semi-synthetic MRS medium ([…] which is supplemented with 1% (w/v) filter-sterilized glucose as the sole carbohydrate source. […] For bifidobacteria strains, the same procedure is followed except all media are supplemented with 0.5 g/l L-cysteine/HCl. […] After the 2nd pass in sMRS+glucose+cysteine, the cultures are washed once with 10 mL of sterile sMRS+cysteine (no carbohydrate), resuspended in 10 ml of sterile sMRS+cysteine (no carbohydrate) and then used as a 1% inoculum. The carbohydrates are sterilized with a 0.22 micron filter and used at a 1% final concentration. Cell growth is performed in 250 μL of sMRS+cysteine covered with 50 μL of mineral oil in a Bioscreen 100-well Honeycomb plate. […] The plate reader is operated in discontinuous mode, with absorbance readings performed in 30-minute intervals, and preceded by 30-second shaking intervals at maximum speed. Controls consist of inoculated medium lacking carbohydrate. […] Maximum OD is determined by inspection of the corrected growth data. OD is determined by subtracting the initial corrected OD (time point 0) from the maximum corrected OD. Samples are grown in biologically independent triplicates and the resulting growth kinetic data are expressed as the mean of these replicates. […]

In the case of `CC(=O)N[C@H]1[C@H](O[C@H]2[C@@H](O)[C@@H](CO)O[C@@H](O[C@H]3[C@H](O)[C@@H](O)C(O)O[C@@H]3CO)[C@@H]2O)O[C@H](CO)[C@@H](O[C@@H]2O[C@H](CO)[C@H](O)[C@H](O)[C@H]2O)[C@@H]1O` (mixture of isomers) [LNnT, Lacto-N-neotetraose], the “alkaline phosphatase activity per milligram of protein (cell differentiation)” value (HT-29 cells) is reported as “trend toward an increase”, the bifidobacteria populations (Bifidobacterium spp.) is reported as “may also be bifidogenic; also recorded: tended to generally increase bifidobacteria levels” and the “growth / ability to ferment (OD600)” value (B. infantis ATCC 15697) is reported as “grow well”. The “growth / ability to ferment (OD600)” value (B. infantis M-63) was “grow well”, the “cell resistance (transepithelial resistance), barrier function” value (Caco-2 cells) was “can have a positive effect on cell resistance; also recorded: can positively affect barrier function of more mature cells” and the fermentation rate (infant fecal bacteria) was “about 4,488 μg/g of dry matter/hour”. For the same compound, the acetate production (infant fecal bacteria; 3 and 6 h) was “produce similar amounts of acetate”, the acetate production (infant fecal bacteria; 6 h) was “less acetate than GOS” and the “acetate production, formula fed versus breast fed infants” value (infant fecal bacteria; 12 h) was “greater”. The lactate production (infant fecal bacteria; 12 h) was “greater (P<0.0001) compared to gum Arabic”, the “total SCFA production, formula fed versus breast fed infants” value (infant fecal bacteria; after 3, 6 and 12 h of fermentation) was “greater (P=0.01) fermentation by formula fed infants” and the “pH change from baseline” value (infant fecal bacteria; at 3, 6 and 12 h after inoculation) was “greatest”. For the same compound, the “fermentability by infant fecal bacteria” value (infant fecal bacteria; overall) was “highly fermentable; also recorded: readily fermented”, the propionate production (infant fecal bacteria; overall) was “greater (P<0.0001) propionate production than gum Arabic” and the “relative rate of fermentation” value (infant fecal bacteria; overall) was “fermented more rapidly than 6′SL; also recorded: fermentation rates similar to GOS”. For the same compound, the lactate production (infant fecal bacteria; time not stated (between the 3 h and 12 h statements)) was “greater (P<0.0001)”, the lactate accumulation (infant fecal bacteria; up to 12 h) was “significant amounts of lactate” and the “growth / ability to ferment (OD600)” value (B. breve ATCC 15700) was “grow well”.
